Our source for the GI50 and TGI values is PubChem BioAssay (NCI).

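Following 48 hours of exposure in 96-well plates, responses at five concentrations were used to interpolate endpoints linearly. The concentration for 50% growth inhibition is given as GI50. TGI: concentration producing complete growth inhibition.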

Test systems include COLO 205 colon; DU-145 prostate; NCI-H522 lung; OVCAR-3 ovarian; OVCAR-4 ovarian; SF-268 CNS; SK-MEL-2 melanoma; SK-MEL-5 melanoma; SK-OV-3 ovarian; TK-10 renal.
Experiment in all cases: DTP human tumour cell line panel, 48 h

As usually defined, the GI50 is the concentration giving 50% growth inhibition. For orientation: TGI means the concentration at which net growth stops. A lower TGI goes with greater sensitivity of the cells. Consider `CC(C)c1ccc(Nc2nccc(-c3cnn4ncccc34)n2)cc1`, for which the GI50 with COLO 205 colon is 306 nM; in the assay on DU-145 prostate, 809 nM; in the assay with NCI-H522 lung, 564 nM; in the assay on OVCAR-3 ovarian, 516 nM; in the assay with OVCAR-4 ovarian, 604 nM; in the assay on SF-268 CNS, 692 nM. The GI50 with SK-MEL-2 melanoma is 411 nM; with SK-MEL-5 melanoma, 218 nM; in the assay with SK-OV-3 ovarian it was 930 nM; in the assay on TK-10 renal, 590 nM. The concentration for total growth inhibition (TGI) in the assay on COLO 205 colon is 704 nM; in the assay on DU-145 prostate, > 9190 nM; in the assay on NCI-H522 lung it was 3350 nM; in the assay with OVCAR-3 ovarian, > 6260 nM; with OVCAR-4 ovarian, 2630 nM; in the assay on SF-268 CNS, 4420 nM. Further, the TGI in the assay with SK-MEL-2 melanoma was 1130 nM; with SK-MEL-5 melanoma, 749 nM; with SK-OV-3 ovarian, 2890 nM; with TK-10 renal, 3170 nM.
